Experimental data reported in patent US20240335394A1 (Ludwig Institute for Cancer Research Ltd, priority 2021, published 2024).

Assays:
syngeneic MC38 tumors = assay: MC38 study: anti-PD1 antibody alone or with methanol or sodium formate, tumor volume and survival; assay type: in vivo, C57BL/6 mice
Experimental: Tumor volumes were measured by caliper twice weekly.

MC38 cells = assay: MC38 rechallenge of mice that cleared tumors; assay type: in vivo; settings: 6 mice cleared by methanol plus anti-PD1, reinoculated with 5×10^5 MC38 cells on opposite flank, untreated, observed three weeks
Source text: The rechallenged mice were monitored twice weekly for tumor growth for three weeks. Fifteen age-matched, tumor-naïve control mice were simultaneously inoculated as a control. The mice were not treated during the observation interval.

[1] = humans; cited from earlier work
[2] = primates; cited from earlier work
[3] = in vivo; cited from earlier work
1C-starved T-cells = settings: formate supplementation; cited from earlier work
[4] = Body weight in the MC38 study; settings: methanol 2 g/kg daily oral gavage or sodium formate 0.5% w/v in drinking water, with anti-PD1
Experimental: Female C57BL/6 mice (10 per group) were inoculated subcutaneously with 5×10^5 MC38 syngeneic mouse tumor cells. […] Tumor volumes were measured by caliper twice weekly.

Row | Compound | response to anti-PD1 therapy (syngeneic MC38 tumors; methanol 2 g/kg daily oral gavage plus anti-PD1 antibody 5 mg/kg ip twice weekly, compared to vehicle or sodium formate) | synergy with immunotherapy in a mouse model of cancer (syngeneic MC38 tumors; mouse model of cancer) | tumor development after rechallenge (MC38 cells) | lethal dose [1] | formate levels at which symptomatic toxicity is observed [2] | elimination [3] | T-cell activity (1C-starved T-cells) | effects on body weight [4]
1 | CO [methanol] | improved response to anti-PD1 therapy | synergize with immunotherapy | did not develop tumors | 300 to 1000 mg/kg | – | – | – | –
2 | O=C[O-].[Na+] [sodium formate] | – | – | – | – | greater than 8 mM | too rapidly eliminated to dose directly | rescues T-cell activity | No effects on body weight
